Measurements: article PMC8999917, “Structure–Activity Relationship of Synthetic Ginkgolic Acid Analogs for Treating Type 2 Diabetes by PTPN9 Inhibition” (International Journal of Molecular Sciences, 2022)

How the values were obtained:
PTPN9 [1] = molecular target: T1, PTPN9 (Homo sapiens, UniProt P43378); assay: PTPN9 enzyme inhibition with DiFMUP substrate; type: biochemical; details: DiFMUP 220 µM, PTPN9 0.15 nM; NA: no activity
T1 construct: made in house; host or cells: Escherichia coli Rosetta (DE3)
T1 sequence (P43378 277-581): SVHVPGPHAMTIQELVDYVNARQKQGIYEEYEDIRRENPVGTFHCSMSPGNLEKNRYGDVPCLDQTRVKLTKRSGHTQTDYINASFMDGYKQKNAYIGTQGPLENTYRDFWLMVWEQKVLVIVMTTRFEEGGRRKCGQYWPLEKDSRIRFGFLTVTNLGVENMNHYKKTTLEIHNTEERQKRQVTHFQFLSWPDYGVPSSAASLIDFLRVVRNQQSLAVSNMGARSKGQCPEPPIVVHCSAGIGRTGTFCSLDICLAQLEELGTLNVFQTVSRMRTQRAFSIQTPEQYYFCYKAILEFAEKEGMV
Procedure: (§1) The purification and kinetic analyses of PTPN9 and DUSP9 (Ser277–581) were performed following methods described in the literature, with slight modifications. PAGE analysis data and enzyme kinetic constants are presented in Figure S1 and Table S1, respectively. Enzyme activity in the presence or absence of the compounds was measured using DiFMUP, a representative PTP fluorogenic substrate. First, the inhibitory effects of compounds 1–3 were evaluated using 50 µM PTPN9 and 20 µM DUSP9. There was an increase in the inhibitory activity of compound 1 for both enzymes as the number of CH2 units increased from 9 to 14 (Figure 2A,B).
(§2) Next, the IC50 values of the compounds, which induce a 50% inhibition of DiFMUP hydrolytic enzyme activity, were determined (Table 1). The IC50 values were determined from the dose–response enzyme inhibition curves of each compound. The dose–response curves for compounds 1e and 1f against PTPN9 and DUSP9, respectively, are presented in Figure 2C,D. Dose–response curves were also obtained for the other compounds (Figures S2 and S3).
(§3) The methods employed for PTP overexpression and purification have been described in a previous study. In brief, human PTPN9 and DUSP9 were cloned into a pET28a vector (Merk Millipore, Darmstadt, Germany) containing a hexahistidine (His6) tag or a maltose-binding protein (MBP) tag in its N-terminus (see Supplementary Materials). Recombinant genes were separately transformed into Escherichia coli Rosetta (DE3) (Merk Millipore, Darmstadt, Germany), and the overexpression of each gene was induced via the addition of 0.1 mM IPTG (Ducherfa Biochemie, Haarlem, RV, USA). After 16 h of incubation at 18 °C, cell pellets were obtained via centrifugation (3570× g at 4 °C for 15 min), resuspended in lysis buffer (50 mM Tris, pH: 7.5, 500 mM NaCl, 5% glycerol, 0.025% 2-mercaptoethanol, and 1 mM phenyl-methylsulfonyl fluoride (PMSF)), and lysed by ultrasonication. Subsequently, cell lysates were centrifuged at 29,820× g for 30 min at 4 °C; then, the supernatant was collected and incubated with a cobalt affinity resin (TALON® Metal Affinity Resin, Takara Korea, Seoul, Korea). After 1 h of incubation at 4 °C, the desired proteins were eluted by adding the lysis buffer supplemented with 100 mM imidazole. Samples were stored at –80 °C until use.
(§4) The enzymatic activities of purified PTPN9 and DUSP9 were measured using 6,8-difluoro-4-methylumbelliferyl phosphate (DiFMUP), the most widely used fluorogenic PTP substrate in the literature. To determine KM values, PTPN9 (0.15 nM) and DUSP9 (200 nM) were added to a reaction buffer (20 mM Bis-tris, pH: 7.0, 150 mM NaCl, 2.5 mM dithiothreitol (DTT), and 0.01% Triton X-100) containing DiFMUP (800, 400, 200, 100, 50, 25, 12.5, or 6.25 μM) in a 96-well black plate. The final reaction volume was 100 µL. The fluorescence intensity was continuously monitored for 10 min (Ex/Em = 355/460 nm) on a Victor™ X4 multilabel plate reader (Perkin Elmer, Norwalk, CT, USA). KM values were obtained using Lineweaver–Burk plots analysis.
(§5) To evaluate the enzyme inhibitory effects of GA and its analogs, 10 µl of the enzyme stock solution (1.5 nM PTPN9 and 2 µM DUSP9) in the reaction buffer was added into the mixture of DiFMUP (to a final concentration of 220 µM and 90 µM for PTPN9 and DUSP9, respectively) and each compound (to a final concentration of 50 µM and 20 µM for PTPN9 and DUSP9, respectively) was added to the reaction buffer. Enzyme activity was measured as described above. Half-inhibitory concentration (IC50) values were determined under similar conditions, except for the concentrations of the inhibitors (200, 100, 50, 25, 12.5, 6.25, or 3.125 µM for PTPN9 and 25, 12.5, 6.25, 3.125, 1.563, 0.782, or 0.391 µM for DUSP9). The dose-dependent curve was fitted to the four-parameter logistic regression equation, (y = a + (b – a)/(1 + (x/c)^d), to obtain IC50 values using the Kaleida Graph software Ver. 4.1.3. (Synergy Software Inc, PA, USA).

DUSP9 [2] = molecular target: T2, DUSP9 (Homo sapiens, UniProt Q99956); assay: DUSP9 enzyme inhibition with DiFMUP substrate; type: biochemical; details: DiFMUP 90 µM, DUSP9 200 nM; NA: no activity
T2 construct: made in house; host or cells: Escherichia coli Rosetta (DE3)
T2 sequence (Q99956 1-384): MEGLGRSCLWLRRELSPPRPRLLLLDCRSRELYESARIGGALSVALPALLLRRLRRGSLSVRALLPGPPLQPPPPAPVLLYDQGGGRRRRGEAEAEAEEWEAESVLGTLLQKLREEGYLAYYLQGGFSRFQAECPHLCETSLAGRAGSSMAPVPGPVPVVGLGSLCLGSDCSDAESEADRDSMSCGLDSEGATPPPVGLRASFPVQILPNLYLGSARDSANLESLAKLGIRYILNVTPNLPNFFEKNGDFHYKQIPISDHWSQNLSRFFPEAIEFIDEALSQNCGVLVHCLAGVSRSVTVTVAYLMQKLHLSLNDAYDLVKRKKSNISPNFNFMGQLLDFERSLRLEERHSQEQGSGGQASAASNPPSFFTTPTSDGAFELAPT
Procedure: as §1, §2, §3, §4, §5

PTPN9 [3] = molecular target: T1, PTPN9; assay: Kinetics of DiFMUP hydrolysis by PTPN9; type: biochemical; details: [E] 0.15 nM
Procedure: (§6) The purification and kinetic analyses of PTPN9 and DUSP9 (Ser277–581) were performed following methods described in the literature, with slight modifications. […] Enzyme activity in the presence or absence of the compounds was measured using DiFMUP, a representative PTP fluorogenic substrate.
as §4

DUSP9 [4] = molecular target: T2, DUSP9; assay: Kinetics of DiFMUP hydrolysis by DUSP9; type: biochemical; details: [E] 200.0 nM
Procedure: as §6, §4

3T3-L1 adipocytes = assay: 2-NBDG glucose uptake assay in differentiated 3T3-L1 adipocytes; type: cell-based, mouse; details: 100 nM
Procedure: PTPN9 inhibitors have been reported to increase glucose uptake. To clarify the antidiabetic effects of GA analogs, a 2-NBDG (a fluorescent glucose probe) uptake assay was performed using differentiated 3T3-L1 adipocytes and C2C12 myotubes. After 16 h of starvation, differentiated 3T3-L1 adipocytes were incubated with compounds 1e and 1f for another 1 h. The cells were subsequently incubated with 2-NBDG for 30 min and washed with PBS before quantifying the fluorescence of 2-NBDG taken up by the cells. The 2-NBDG uptake-increasing effects of GA and its analogs in 3T3-L1 cells were monitored via confocal microscopy. The blank group was set in the absence of 2-NBDG but was treated with DMSO to determine the basal fluorescence levels in 3T3-L1 adipocytes (Figure 4A, Basal); in the negative control group, 3T3-L1 adipocytes were treated with 2-NBDG and DMSO for the evaluation of basal glucose uptake levels (Figure 4A, DMSO). […] Furthermore, to quantify 2-NBDG uptake, fluorescence intensity (Ex/Em = 485/535 nm) was measured using a plate reader. […] After incubation, the cells were washed with pre-cold PBS, and the fluorescence intensity was measured using a fluorescence microplate reader (Victor^TM X4, PerkinElmer, Waltham, MA, USA) (Ex/Em = 485/535 nm). […]

Compound | IC50 (PTPN9 [1]) [µM] | IC50 (DUSP9 [2]) [µM] | also measured
CCCCCCCCCCCOc1cccc(O)c1C(=O)O [Compound 1c] | 77.1 ± 0.78 | 23.9 ± 0.65 | –
Cc1cc(=O)oc2c(F)c(OP(=O)(O)O)c(F)cc12 [DiFMUP, 6,8-difluoro-4-methylumbelliferyl phosphate] | – | – | Km (PTPN9 [3]): 110 µM; Vmax (PTPN9 [3]): 1.73 μMmin-1; Km (DUSP9 [4]): 45 µM; Vmax (DUSP9 [4]): 1.65 μMmin-1; kcat (DUSP9 [4]): 0.138 s⁻¹
Insulin: positive control (100 nM) in the 2-NBDG uptake assay | – | – | 2-NBDG uptake (positive control) (3T3-L1 adipocytes): significantly stimulated 2-NBDG uptake

Now from value to compound, other results behind:

IC50 (PTPN9 [1]) [µM] | IC50 (DUSP9 [2]) [µM] | Compound | also measured
28.54 ± 0.1 | 8.61 ± 0.66 | CCCCCCCCCCCCOc1cccc(O)c1C(=O)O [Compound 1d] | –
69.3 ± 6.22 | 5.27 ± 0.07 | CCCCCCCCCCCCCOc1ccc(C(=O)O)c(O)c1 [Compound 2] | –
36.5 ± 1 | 4.68 ± 0.06 | CCCCCCCCCCCCCOc1ccc(O)c(C(=O)O)c1 [Compound 3] | –
